Measurements from article PMC6979384, “Characterization of the plant homeodomain (PHD) reader family for their histone tail interactions” (Epigenetics & Chromatin, 2020).

Columns and labels:
Assay in all cases: Histone peptide microarray
Type in all cases: binding, human
KDM5B (3) = conditions: GST-tagged KDM5B (3)
From the text: (§1) To more comprehensively define the histone interactions of the 31 PHD readers identified from the domain microarray analyses, we probed each on an alternate microarray platform containing a library of 293 synthetic histone peptides with single or combinatorial PTMs (Additional file 2: Figure S4 and Additional file 3: Table S2).
(§2) The 31 GST-tagged PHD readers identified in the PHD finger domain array were expressed and purified as previously. Histone peptide arrays and peptide pulldown assays were conducted as recently described (specifically, the optimized protocol from Petell et al. for the former).
(§3) Supplementary file 13072_2020_328_MOESM3_ESM.xlsx: Additional file 3: Table S2. […] Excel Tab Peptide List is a compiled list of the entire 293 histone peptide library with amino acid sequence ranges. […] Each number corresponds to the peptide number designated in Peptide List. Excel Tab Average Signals is a compiled set of binding data: chromatin reader at 0.5 μM vs. entire 293 peptide library. Data is presented as the average and standard deviation of 4 replicates. The average signals are colored to indicate signal intensity with green being strong and white being weak/low. […] Key: red= stronger relative binding; blue = weaker relative binding. Excel Tab Array info summary is a table summarizing the domains, sequence coverage, array signal range, and noise for each of the GST-tagged readers assayed on the peptide microarrays.

ING5 = conditions: GST-tagged ING5
From the text: as §1, §2, §3

KDM7A = conditions: GST-tagged KDM7A
From the text: as §1, §2, §3

CHD4 (PPCC) = tested on: CHD4 (PPCC)
From the text: as §1, §2, §3

PHF2 = conditions: GST-tagged PHF2
From the text: as §1, §2, §3

MLL5 = conditions: GST-tagged MLL5
From the text: as §1, §2, §3

DPF2 (PPC2W2) = tested on: DPF2 (PPC2W2)
From the text: as §1, §2, §3

TRIM66 (PB) = tested on: TRIM66 (PB)
From the text: as §1, §2, §3

KDM5A (3) = conditions: GST-tagged KDM5A (3)
From the text: as §1, §2, §3

DIDO1 = conditions: GST-tagged DIDO1
From the text: as §1, §2, §3

MORC3 (CW) = tested on: MORC3 (CW)
From the text: as §1, §2, §3

CHD5 (PCC) = tested on: CHD5 (PCC)
From the text: as §1, §2, §3

PHF21A = conditions: GST-tagged PHF21A
From the text: as §1, §2, §3

PHRF1 (RP) = conditions: GST-tagged PHRF1 (RP)
From the text: as §1, §2, §3

ING3 = conditions: GST-tagged ING3
From the text: as §1, §2, §3

CHD5 (PPCC) = tested on: CHD5 (PPCC)
From the text: as §1, §2, §3

ING1 = conditions: GST-tagged ING1
From the text: as §1, §2, §3

RAG2 = conditions: GST-tagged RAG2
From the text: as §1, §2, §3

KDM5A (1) = conditions: GST-tagged KDM5A (1)
From the text: as §1, §2, §3

PHF8 = conditions: GST-tagged PHF8
From the text: as §1, §2, §3

BAZ2B = conditions: GST-tagged BAZ2B
From the text: as §1, §2, §3

ING4 = conditions: GST-tagged ING4
From the text: as §1, §2, §3

SP140L = conditions: GST-tagged SP140L
From the text: as §1, §2, §3

PHF23 = conditions: GST-tagged PHF23
From the text: as §1, §2, §3

PHF13 = conditions: GST-tagged PHF13
From the text: as §1, §2, §3

ING2 = conditions: GST-tagged ING2
From the text: as §1, §2, §3

TAF3 = conditions: GST-tagged TAF3
From the text: as §1, §2, §3

BPTF (PB) = tested on: BPTF (PB)
From the text: as §1, §2, §3

KDM5B (1) = conditions: GST-tagged KDM5B (1)
From the text: as §1, §2, §3

AIRE (PP) = conditions: GST-tagged AIRE (PP)
From the text: as §1, §2, §3

KDM4C (TTP) = tested on: KDM4C (TTP)
From the text: as §1, §2, §3

[1] = sheet Array Heatmap, each array performed twice, total n = 4
[2] = sheet "Array Heatmap", arrays performed twice, total replicate number n = 4

For H3K4ac + K18ac: H3 1-20, which “Array Heatmap signal (histone peptide microarray)” value (KDM5B (3); [1]) is on record?
Its value is 0.551.

And the “Array Heatmap signal (histone peptide microarray)” value (ING5; [1])?
Its value is 0.347.

And the “Array Heatmap signal (histone peptide microarray)” value (KDM7A; [1])?
The value was 0.4179.

And the “Array Heatmap signal (histone peptide microarray)” value (CHD4 (PPCC); GST-tagged CHD4 (PPCC = Dual PHD + Dual Chromodomain), sheet Array Heatmap, each array performed twice, total n = 4)?
The value was 0.5623.

And the “Array Heatmap signal (histone peptide microarray)” value (PHF2; [1])?
Its value is 0.5195.

What about the “Array Heatmap signal (histone peptide microarray)” value (MLL5; [1]) of the same substance?
The value was 0.5346.

What about the “Array Heatmap signal (histone peptide microarray)” value (DPF2 (PPC2W2); GST-tagged DPF2 (PPC2W2 = Dual PHD + C2W2-type Zn-finger), sheet Array Heatmap, each array performed twice, total n = 4) of the same substance?
Its value is 0.6503.

And the “Array Heatmap signal (histone peptide microarray)” value (TRIM66 (PB); GST-tagged TRIM66 (PB = PHD + Bromodomain), sheet Array Heatmap, each array performed twice, total n = 4)?
The value was 0.6289.

And the “Array Heatmap signal (histone peptide microarray)” value (KDM5A (3); [1])?
The value was 0.4876.

And the “Array Heatmap signal (histone peptide microarray)” value (DIDO1; [1])?
The value was 0.6662.

What about the “Array Heatmap signal (histone peptide microarray)” value (MORC3 (CW); GST-tagged MORC3 (CW = CW-type Zn-finger), sheet Array Heatmap, each array performed twice, total n = 4) of the same substance?
Its value is 0.4359.

What about the “Array Heatmap signal (histone peptide microarray)” value (CHD5 (PCC); GST-tagged CHD5 (PCC = PHD + Dual Chromodomain), sheet Array Heatmap, each array performed twice, total n = 4) of the same substance?
Its value is 0.8291.

And the “Array Heatmap signal (histone peptide microarray)” value (PHF21A; [1])?
The value was 0.4736.

What about the “Array Heatmap signal (histone peptide microarray)” value (PHRF1 (RP); [1]) of the same substance?
Its value is 0.5224.

And the “Array Heatmap signal (histone peptide microarray)” value (ING3; [1])?
Its value is 0.5109.

And the “Array Heatmap signal (histone peptide microarray)” value (CHD5 (PPCC); GST-tagged CHD5 (PPCC = Dual PHD + Dual Chromodomain), sheet Array Heatmap, each array performed twice, total n = 4)?
The value was 0.5589.

What about the “Array Heatmap signal (histone peptide microarray)” value (ING1; [1]) of the same substance?
The value was 0.5001.

What about the “Array Heatmap signal (histone peptide microarray)” value (RAG2; [1]) of the same substance?
The value was 0.291.

And the “Array Heatmap signal (histone peptide microarray)” value (KDM5A (1); [1])?
Its value is 0.4894.

What about the “Array Heatmap signal (histone peptide microarray)” value (PHF8; [1]) of the same substance?
The value was 0.356.

And the “Array Heatmap signal (histone peptide microarray)” value (BAZ2B; [1])?
The value was 0.4765.

What about the “Array Heatmap signal (histone peptide microarray)” value (ING4; [1]) of the same substance?
Its value is 0.455.

And the “Array Heatmap signal (histone peptide microarray)” value (SP140L; [1])?
Its value is 0.3275.

What about the “Array Heatmap signal (histone peptide microarray)” value (PHF23; [1]) of the same substance?
The value was 0.5594.

And the “Array Heatmap signal (histone peptide microarray)” value (PHF13; [1])?
Its value is 0.6219.

And the “Array Heatmap signal (histone peptide microarray)” value (ING2; [1])?
Its value is 0.6077.

And the “Array Heatmap signal (histone peptide microarray)” value (TAF3; [1])?
The value was 0.2831.

And the “Array Heatmap signal (histone peptide microarray)” value (BPTF (PB); GST-tagged BPTF (PB = PHD + Bromodomain), sheet Array Heatmap, each array performed twice, total n = 4)?
The value was 0.3724.

And the “Array Heatmap signal (histone peptide microarray)” value (KDM5B (1); [1])?
Its value is 0.6733.

And the “Array Heatmap signal (histone peptide microarray)” value (AIRE (PP); [1])?
The value was 0.4624.

And the “Array Heatmap signal (histone peptide microarray)” value (KDM4C (TTP); GST-tagged KDM4C (TTP = Tandem Tudor domain + PHD), sheet Array Heatmap, each array performed twice, total n = 4)?
The value was 0.5036.

With “H3.3K27me1: H3.3 15-34 [Peptide H3.3K27me1]” as the substance, how does the “Array Heatmap signal, KDM5B (3)” value (KDM5B (3); [2]) read?
The value was 0.4744.

And the “Array Heatmap signal, ING5” value (ING5; [2])?
Its value is 0.3774.

And the “Array Heatmap signal, KDM7A” value (KDM7A; [2])?
Its value is 0.4745.

What about the “Array Heatmap signal, CHD4 (PPCC)” value (CHD4 (PPCC); sheet "Array Heatmap", GST-tagged CHD4 (PPCC), arrays performed twice, total replicate number n = 4) of the same substance?
The value was 0.5655.

What about the “Array Heatmap signal, PHF2” value (PHF2; [2]) of the same substance?
The value was 0.3646.

And the “Array Heatmap signal, MLL5” value (MLL5; [2])?
Its value is 0.5371.

And the “Array Heatmap signal, DPF2 (PPC2W2)” value (DPF2 (PPC2W2); sheet "Array Heatmap", GST-tagged DPF2 (PPC2W2), arrays performed twice, total replicate number n = 4)?
The value was 0.6219.

What about the “Array Heatmap signal, TRIM66 (PB)” value (TRIM66 (PB); sheet "Array Heatmap", GST-tagged TRIM66 (PB), arrays performed twice, total replicate number n = 4) of the same substance?
Its value is 0.534.

What about the “Array Heatmap signal, KDM5A (3)” value (KDM5A (3); [2]) of the same substance?
Its value is 0.366.

What about the “Array Heatmap signal, DIDO1” value (DIDO1; [2]) of the same substance?
The value was 0.5418.

What about the “Array Heatmap signal, MORC3 (CW)” value (MORC3 (CW); sheet "Array Heatmap", GST-tagged MORC3 (CW), arrays performed twice, total replicate number n = 4) of the same substance?
The value was 0.3133.

What about the “Array Heatmap signal, CHD5 (PCC)” value (CHD5 (PCC); sheet "Array Heatmap", GST-tagged CHD5 (PCC), arrays performed twice, total replicate number n = 4) of the same substance?
Its value is 0.7906.

And the “Array Heatmap signal, PHF21A” value (PHF21A; [2])?
Its value is 0.4715.

And the “Array Heatmap signal, PHRF1 (RP)” value (PHRF1 (RP); [2])?
Its value is 0.3762.

What about the “Array Heatmap signal, ING3” value (ING3; [2]) of the same substance?
Its value is 0.4473.

And the “Array Heatmap signal, CHD5 (PPCC)” value (CHD5 (PPCC); sheet "Array Heatmap", GST-tagged CHD5 (PPCC), arrays performed twice, total replicate number n = 4)?
The value was 0.5646.

What about the “Array Heatmap signal, ING1” value (ING1; [2]) of the same substance?
Its value is 0.4683.

And the “Array Heatmap signal, RAG2” value (RAG2; [2])?
Its value is 0.2345.

What about the “Array Heatmap signal, KDM5A (1)” value (KDM5A (1); [2]) of the same substance?
The value was 0.5094.

What about the “Array Heatmap signal, PHF8” value (PHF8; [2]) of the same substance?
The value was 0.3072.

And the “Array Heatmap signal, BAZ2B” value (BAZ2B; [2])?
The value was 0.5147.

What about the “Array Heatmap signal, ING4” value (ING4; [2]) of the same substance?
The value was 0.4785.

What about the “Array Heatmap signal, SP140L” value (SP140L; [2]) of the same substance?
The value was 0.3662.

And the “Array Heatmap signal, PHF23” value (PHF23; [2])?
Its value is 0.4768.

And the “Array Heatmap signal, PHF13” value (PHF13; [2])?
Its value is 0.6089.

And the “Array Heatmap signal, ING2” value (ING2; [2])?
Its value is 0.5862.

And the “Array Heatmap signal, TAF3” value (TAF3; [2])?
Its value is 0.2716.

What about the “Array Heatmap signal, BPTF (PB)” value (BPTF (PB); sheet "Array Heatmap", GST-tagged BPTF (PB), arrays performed twice, total replicate number n = 4) of the same substance?
The value was 0.3434.

And the “Array Heatmap signal, KDM5B (1)” value (KDM5B (1); [2])?
The value was 0.6832.

What about the “Array Heatmap signal, AIRE (PP)” value (AIRE (PP); [2]) of the same substance?
The value was 0.5413.

And the “Array Heatmap signal, KDM4C (TTP)” value (KDM4C (TTP); sheet "Array Heatmap", GST-tagged KDM4C (TTP), arrays performed twice, total replicate number n = 4)?
Its value is 0.5409.
